Organism: Rattus norvegicus
Test: DrugMatrix - Regimen: Daily Repeat
Assay type: toxicity, organism-based, Sprague-Dawley
Set-up: regimen Daily Repeat, gender Male, age 6-8 weeks
Conditions: in vivo, po, route oral GAVAGE, […]; for ABSOLUTE BASOPHIL / ABSOLUTE EOSINOPHIL / ABSOLUTE LYMPHOCYTE / ABSOLUTE MONOCYTE / ABSOLUTE SEGMENTED NEUTROPHIL / BASOPHIL / EOSINOPHIL / ERYTHROCYTE COUNT / HEMATOCRIT / HEMOGLOBIN / LEUKOCYTE COUNT / LYMPHOCYTE / MEAN CORPUSCULAR HEMOGLOBIN / MEAN CORPUSCULAR HEMOGLOBIN CONCENTRATION / MEAN CORPUSCULAR VOLUME / MONOCYTE / NEUTROPHIL / NUCLEATED RED BLOOD CELLS / PLATELET COUNT: tissue Blood; for ALANINE AMINOTRANSFERASE / ALBUMIN / ALKALINE PHOSPHATASE / ASPARTATE AMINOTRANSFERASE / BLOOD UREA NITROGEN / CARBON DIOXIDE / CHLORIDE / CHOLESTEROL / CREATINE PHOSPHOKINASE / CREATININE / GLUCOSE / LACTATE DEHYDROGENASE / LIPASE / PHOSPHORUS / POTASSIUM / SODIUM / TOTAL BILIRUBIN / TOTAL PROTEIN / URIC ACID: tissue Plasma
[1] = 40 mg/kg, 72 h, dose level Low, time 3 day
[2] = 40 mg/kg, 120 h, dose level Low, time 5 day
[3] = 450 mg/kg, 72 h, dose level High, time 3 day
[4] = 450 mg/kg, 120 h, dose level High, time 5 day

Structure (SMILES): CC(c1cc2ccccc2s1)N(O)C(N)=O (configuration not stated) [ZILEUTON]
- ABSOLUTE BASOPHIL [1]: 0 CELLS/uL
- ABSOLUTE EOSINOPHIL [1]: 103.33 CELLS/uL
- ABSOLUTE LYMPHOCYTE [1]: 13682 CELLS/uL
- ABSOLUTE MONOCYTE [1]: 0 CELLS/uL
- ABSOLUTE SEGMENTED NEUTROPHIL [1]: 1348 CELLS/uL
- BASOPHIL [1]: 0%
- EOSINOPHIL [1]: 0.67%
- ERYTHROCYTE COUNT [1]: 5.58 x10E6/uL
- HEMATOCRIT [1]: 34.97%
- HEMOGLOBIN [1]: 13.77 G/DL
- LEUKOCYTE COUNT [1]: 15.13 x10E3/uL
- LYMPHOCYTE [1]: 90.33%
- MEAN CORPUSCULAR HEMOGLOBIN [1]: 24.67 pg
- MEAN CORPUSCULAR HEMOGLOBIN CONCENTRATION [1]: 39.37 G/DL
- MEAN CORPUSCULAR VOLUME [1]: 62.67 fL
- MONOCYTE [1]: 0%
- NEUTROPHIL [1]: 9%
- NUCLEATED RED BLOOD CELLS [1]: 0 /100WBC
- PLATELET COUNT [1]: 1217.67 x10E3/uL
- ALANINE AMINOTRANSFERASE [1]: 75.33 u/L
- ALBUMIN [1]: 3.93 G/DL
- ALKALINE PHOSPHATASE [1]: 442 u/L
- ASPARTATE AMINOTRANSFERASE [1]: 87.67 u/L
- BLOOD UREA NITROGEN [1]: 14 mg/dL
- CARBON DIOXIDE [1]: 32.33 mmol/L
- CHLORIDE [1]: 100 MEQ/L
- CHOLESTEROL [1]: 66.67 mg/dL
- CREATINE PHOSPHOKINASE [1]: 201.33 u/L
- CREATININE [1]: 0.14 mg/dL
- GLUCOSE [1]: 160 mg/dL
- LACTATE DEHYDROGENASE [1]: 148.33 u/L
- LIPASE [1]: 10.67 u/L
- PHOSPHORUS [1]: 10.8 mg/dL
- POTASSIUM [1]: 6.7 MEQ/L
- SODIUM [1]: 140.3 MEQ/L
- TOTAL BILIRUBIN [1]: 0.17 mg/dL
- TOTAL PROTEIN [1]: 5.37 G/DL
- URIC ACID [1]: 1.53 mg/dL
- ABSOLUTE BASOPHIL [2]: 0 CELLS/uL
- ABSOLUTE EOSINOPHIL [2]: 0 CELLS/uL
- ABSOLUTE LYMPHOCYTE [2]: 9935.67 CELLS/uL
- ABSOLUTE MONOCYTE [2]: 247 CELLS/uL
- ABSOLUTE SEGMENTED NEUTROPHIL [2]: 1084 CELLS/uL
- BASOPHIL [2]: 0%
- EOSINOPHIL [2]: 0%
- ERYTHROCYTE COUNT [2]: 5.6 x10E6/uL
- HEMATOCRIT [2]: 34.1%
- HEMOGLOBIN [2]: 13.83 G/DL
- LEUKOCYTE COUNT [2]: 11.27 x10E3/uL
- LYMPHOCYTE [2]: 89%
- MEAN CORPUSCULAR HEMOGLOBIN [2]: 24.77 pg
- MEAN CORPUSCULAR HEMOGLOBIN CONCENTRATION [2]: 40.57 G/DL
- MEAN CORPUSCULAR VOLUME [2]: 60.97 fL
- MONOCYTE [2]: 2%
- NEUTROPHIL [2]: 9%
- NUCLEATED RED BLOOD CELLS [2]: 0 /100WBC
- PLATELET COUNT [2]: 1094 x10E3/uL
- ALANINE AMINOTRANSFERASE [2]: 62 u/L
- ALBUMIN [2]: 4.23 G/DL
- ALKALINE PHOSPHATASE [2]: 479.33 u/L
- ASPARTATE AMINOTRANSFERASE [2]: 79.33 u/L
- BLOOD UREA NITROGEN [2]: 13.67 mg/dL
- CARBON DIOXIDE [2]: 32 mmol/L
- CHLORIDE [2]: 100.67 MEQ/L
- CHOLESTEROL [2]: 62 mg/dL
- CREATINE PHOSPHOKINASE [2]: 165.33 u/L
- CREATININE [2]: 0.2 mg/dL
- GLUCOSE [2]: 145 mg/dL
- LACTATE DEHYDROGENASE [2]: 111.67 u/L
- LIPASE [2]: 11 u/L
- PHOSPHORUS [2]: 10.6 mg/dL
- POTASSIUM [2]: 6.47 MEQ/L
- SODIUM [2]: 141.17 MEQ/L
- TOTAL BILIRUBIN [2]: 0.17 mg/dL
- TOTAL PROTEIN [2]: 5.67 G/DL
- URIC ACID [2]: 1.47 mg/dL
- ABSOLUTE BASOPHIL [3]: 0 CELLS/uL
- ABSOLUTE EOSINOPHIL [3]: 0 CELLS/uL
- ABSOLUTE LYMPHOCYTE [3]: 15031 CELLS/uL
- ABSOLUTE MONOCYTE [3]: 0 CELLS/uL
- ABSOLUTE SEGMENTED NEUTROPHIL [3]: 1769 CELLS/uL
- BASOPHIL [3]: 0%
- EOSINOPHIL [3]: 0%
- ERYTHROCYTE COUNT [3]: 5.39 x10E6/uL
- HEMATOCRIT [3]: 32.93%
- HEMOGLOBIN [3]: 13.6 G/DL
- LEUKOCYTE COUNT [3]: 16.8 x10E3/uL
- LYMPHOCYTE [3]: 89.33%
- MEAN CORPUSCULAR HEMOGLOBIN [3]: 25.27 pg
- MEAN CORPUSCULAR HEMOGLOBIN CONCENTRATION [3]: 41.33 G/DL
- MEAN CORPUSCULAR VOLUME [3]: 61.1 fL
- MONOCYTE [3]: 0%
- NEUTROPHIL [3]: 10.67%
- NUCLEATED RED BLOOD CELLS [3]: 0.33 /100WBC
- PLATELET COUNT [3]: 1249 x10E3/uL
- ALANINE AMINOTRANSFERASE [3]: 87.67 u/L
- ALBUMIN [3]: 3.67 G/DL
- ALKALINE PHOSPHATASE [3]: 458 u/L
- ASPARTATE AMINOTRANSFERASE [3]: 128 u/L
- BLOOD UREA NITROGEN [3]: 17.67 mg/dL
- CARBON DIOXIDE [3]: 25.33 mmol/L
- CHLORIDE [3]: 103.67 MEQ/L
- CHOLESTEROL [3]: 65.67 mg/dL
- CREATINE PHOSPHOKINASE [3]: 774.33 u/L
- CREATININE [3]: 0.18 mg/dL
- GLUCOSE [3]: 148.33 mg/dL
- LACTATE DEHYDROGENASE [3]: 301.67 u/L
- LIPASE [3]: 10.67 u/L
- PHOSPHORUS [3]: 12.57 mg/dL
- POTASSIUM [3]: 5.93 MEQ/L
- SODIUM [3]: 142.9 MEQ/L
- TOTAL BILIRUBIN [3]: 0.2 mg/dL
- TOTAL PROTEIN [3]: 5.13 G/DL
- URIC ACID [3]: 1.47 mg/dL
- ABSOLUTE BASOPHIL [4]: 0 CELLS/uL
- ABSOLUTE EOSINOPHIL [4]: 45 CELLS/uL
- ABSOLUTE LYMPHOCYTE [4]: 16299.33 CELLS/uL
- ABSOLUTE MONOCYTE [4]: 207.67 CELLS/uL
- ABSOLUTE SEGMENTED NEUTROPHIL [4]: 1114.67 CELLS/uL
- BASOPHIL [4]: 0%
- EOSINOPHIL [4]: 0.33%
- ERYTHROCYTE COUNT [4]: 5.62 x10E6/uL
- HEMATOCRIT [4]: 34.17%
- HEMOGLOBIN [4]: 13.87 G/DL
- LEUKOCYTE COUNT [4]: 17.67 x10E3/uL
- LYMPHOCYTE [4]: 92.33%
- MEAN CORPUSCULAR HEMOGLOBIN [4]: 24.73 pg
- MEAN CORPUSCULAR HEMOGLOBIN CONCENTRATION [4]: 40.6 G/DL
- MEAN CORPUSCULAR VOLUME [4]: 60.87 fL
- MONOCYTE [4]: 1%
- NEUTROPHIL [4]: 6.33%
- NUCLEATED RED BLOOD CELLS [4]: 0 /100WBC
- PLATELET COUNT [4]: 1205.33 x10E3/uL
- ALANINE AMINOTRANSFERASE [4]: 64.33 u/L
- ALBUMIN [4]: 4.1 G/DL
- ALKALINE PHOSPHATASE [4]: 388 u/L
- ASPARTATE AMINOTRANSFERASE [4]: 79.33 u/L
- BLOOD UREA NITROGEN [4]: 16 mg/dL
- CARBON DIOXIDE [4]: 37.67 mmol/L
- CHLORIDE [4]: 99.33 MEQ/L
- CHOLESTEROL [4]: 79 mg/dL
- CREATINE PHOSPHOKINASE [4]: 125 u/L
- CREATININE [4]: 0.15 mg/dL
- GLUCOSE [4]: 142 mg/dL
- LACTATE DEHYDROGENASE [4]: 75 u/L
- LIPASE [4]: 10.33 u/L
- PHOSPHORUS [4]: 10.97 mg/dL
- POTASSIUM [4]: 6.65 MEQ/L
- SODIUM [4]: 142.6 MEQ/L
- TOTAL BILIRUBIN [4]: 0.2 mg/dL
- TOTAL PROTEIN [4]: 5.8 G/DL
- URIC ACID [4]: 1.7 mg/dL

— ChEMBL document CHEMBL3885881, “DrugMatrix”
